Source: US20240261258A1, “Presurgical Perineural Administration of Resiniferatoxin For Reduction of Post-Operative Pain” (Sorrento Therapeutics, Inc., priority 2021, published 2024)

How the values were obtained:
[1] = tested on: dog undergoing TPLO, femoral and sciatic nerves; assay: TPLO in a single dog after perineural RTX (Example A); assay type: in vivo
Description: A TPLO (Tibial Plateau Osteotomy) was performed on a single dog. Before surgery, 25 μg RTX was administered perineurally to the femoral and sciatic nerves. The procedure included cutting the bone in the leg, changing the angle of the knee articulation, screwing in a plate, and resewing muscle that was cut to access the knee.
After waking up, all of the dog's motor functions were preserved. […] The dog was able to put the affected leg down from time to time when ambulating but, as would be expected, the leg was not fully weight-bearing.

[2] = tested on: healthy dogs undergoing TPLO surgery; assay: Clinical observations during RTX instillation under general anesthesia and recovery; assay type: in vivo, dog
Source text: This example provides safety data related to the tolerability of RTX administered as a nerve block pre-surgically and as a local application on the surgical site intraoperatively in healthy dogs undergoing tibial plateau levelling osteotomy (TPLO). Pharmacological behavior of RTX after a perineural injection and local application in the hindlimb and the long-term effects on bone healing was also observed.
Fourteen adult female beagle dogs, weighing 11.9±0.6 kg and between 3-5 years of age, were enrolled in this study. Each animal was randomly assigned to one of four groups. Four dogs (group 1) received a femoral and sciatic nerve block with 12.5 μg RTX per nerve (25 μg RTX total) diluted with sterile saline for a total volume of 2 mL (half volume per block). Another four dogs (group 2) received a femoral and a sciatic nerve block with 3.12 μg RTX per nerve block (6.25 μg RTX total) diluted with sterile saline for a total volume of 2 mL (half volume per block). Group 3 (4 animals) received a femoral and sciatic nerve block with 5 mg bupivacaine total (standard of care) plus a total of 50 μg RTX (total volume of 4 mL, concentration 12.5 μg/mL) applied locally to the cut on the tibia for 10 min. Group 4 (2 animals) was the control group and received a femoral and a sciatic nerve block with 5 mg bupivacaine total (standard of care).
Dogs were sedated and anesthetized using standard protocols and following the American College of Veterinary Analgesia and Anesthesia guidelines. A physical exam was performed prior to surgery and a complete blood count and chemistry profile were submitted. Food was withheld for 8-10 hours before surgery and offered again 4-6 hours after recovery from anesthesia.
Diphenhydramine (2.2 mg/kg) was given IM after induction. The peripheral IV catheter was used for administration of fluid (Lactate Ringer's solution (LRS) at 5 mL/kg/h), and intraoperative drugs when necessary (hydromorphone and/or ketamine and/or dexmedetomidine for analgesia, atropine in case of bradycardia, dopamine or dobutamine in case of hypotension). Cefazolin 22 mg/kg was administered intravenously prior to surgery and every 60-90 minutes during surgery.
Femoral and sciatic nerve blocks with RTX or bupivacaine were performed after induction of general anesthesia, and followed by surgery (TPLO). RTX was administered at least 15 minutes prior to any cut made to the bone. Dogs in group 3 received RTX during surgery via direct application on the bone.
At the end of surgery, animals were allowed to recover. Following extubation, animals were supervised until able to stand and walk steadily, then monitored for the first 4 hours following the procedure. Food and water were given at 4-6 hours if recovery was smooth and uneventful. All subjects received oral carprofen 2.2 mg/kg twice a day for 10 days and trazodone 5-7 mg/kg twice a day, until the end of the study.
Perineural injections (femoral and sciatic nerve block) of RTX were performed before surgery under general anesthesia and application of RTX over the bone incision was done during the surgical procedure. The nerve blocks were applied at after administration of anesthesia and least 15 minutes before surgery.
For the perineural injections, the animal was placed in right lateral recumbency and the lateral and medial aspects of proximal area of the left hindlimb were clipped and prepared using an aseptic technique. A caudal approach was used for the sciatic nerve block. The ultrasound transducer was placed over the lateral aspect of the biceps femoris, just distal to the greater trochanter and oriented craniocaudally. After obtaining a short axis view of the sciatic nerve, a sheathed needle for electrolocation was inserted caudally in-plane with the ultrasound transducer until the tip of the needle reached the nerve. The correct location of the needle was confirmed by a positive response (twitches of the leg) after activation of the nerve locator using a current of 0.3-0.5 mA. […]

[3] = tested on: CGRP immunopositive axons of sciatic and femoral nerves; assay: Quantification of CGRP immunopositive nerve fibers; assay type: in vivo, dog
Description: FIGS. 1A-J show density of CGRP immunopositive axons in representative confocal images of ipsilateral (left; A-D) and contralateral (right; E-H) sciatic nerve from dogs post-TPLO and after different treatment and doses of RTX. Each bar represents the mean±SEM. Data were analyzed by one-way ANOVA followed by Tukey post hoc test; *p<0.05. FIGS. 1I-J are bar graphs of the density of CGRP immunopositive axons, (density of nerve fibers in mm/mm3) in ipsilateral (I) and contralateral (J) sciatic nerves as measured in n subjects in each group.
FIGS. 3A-J show CGRP immunopositive axon density in representative confocal images of ipsilateral (left; A-D) and contralateral (right; E-H) femoral nerve from dogs post-TPLO surgery and after different treatment and doses of RTX. Each bar represents the mean±SEM. Data were analyzed by one-way ANOVA followed by Tukey post hoc test; *p<0.05. FIGS. 3I-J are bar graphs of the density of CGRP immunopositive axons (density of nerve fibers in mm/mm3) in ipsilateral (I), and contralateral (J) femoral nerves as measured in n subjects in each group.
The effects of different routes of administration and/or different doses of RTX on the density of CGRP immunopositive axons in the ipsilateral (left) and contralateral (right) sciatic nerves are shown in FIG. 1. […] However, statistical significance was observed only with the dose of 12.5 μg (25 μg total; p=0.0184) per nerve of RTX. FIGS. 1E-H show the effect of different treatment and doses of RTX on the density of CGRP nerve axons innervating the contralateral (right) sciatic nerve from animals post-TPLO.

[4] = 25 μg RTX perineurally before surgery

SMILES: C=C(C)[C@]12C[C@@H](C)[C@@]34O[C@](Cc5ccccc5)(O[C@@H]1[C@@H]3C=C(COC(=O)Cc1ccc(O)c(OC)c1)C[C@]1(O)C(=O)C(C)=C[C@@H]41)O2 [RTX, resiniferatoxin]
- Additional pain medications when the dog woke up [1, 4]: No additional pain medications
- Motor functions after waking up [1, 4]: preserved
- Need to deepen the general anesthesia during cutting of the bone [1, 4]: no need to deepen the general anesthesia
- Need to increase the opioid dose for the last part of the surgery [1, 4]: no need to increase the opioid dose
- Pain at manipulation, inflammation, and swelling (standardized veterinary post-surgical pain scale) [1, 4]: lower than expected
- Time until the dog was up and walking [1, 4]: Within a couple of hours
- Reaction of the dog during cutting of the bone ([1]; 25 μg RTX perineurally to femoral and sciatic nerves before surgery): no reaction
- Dogs that required dobutamine to treat hypotension ([2]; Group 1 (4 dogs), after RTX administration): None
- Dogs given dexmedetomidine IV to treat dysphoria immediately after extubation ([2]; Group 2): one
- Dogs given naloxone IV due to prolonged recovery ([2]; Group 2): One
- Dogs that required dobutamine to treat hypotension ([2]; Group 2 (4 dogs), after RTX administration): one
- Dogs given dexmedetomidine IV to treat dysphoria immediately after extubation ([2]; Group 3): one
- Dogs that required dobutamine to treat hypotension ([2]; Group 3 (4 dogs)): two
- Mean blood pressure after increase ([2]; Subject 2968 (group 1), from 60 mmHg, 100 minutes after RTX, leg stretched during aseptic preparation): 172 mmHg
- Heart rate after increase ([2]; Subject 2968 (group 1), from 90 bpm, 100 minutes after RTX, leg stretched during aseptic preparation): 168 bpm
- Tolerability ([2]; all RTX treatments: nerve block 6.25 μg and 25 μg total, local gauze loaded with 50 μg): well tolerated
- Change in heart rate and blood pressure ([2]; approximately 15 to 25 minutes after RTX administration, group 1 and 2 subjects): mild to moderate increase
- Respiratory observation after extubation ([2]; dogs in group 1 and 2): polypnea
- Body temperature to which dogs decreased before polypnea ended ([2]; dogs in group 1 and 2, after extubation): 94-95 ° F
- Duration of decrease in body temperature after the treatment ([2]; some dogs of groups 1 and 2, clinically acted normally): up to 3 days
- Persistence of hypothermia ([2]; three subjects of group 1 (0271, 2968, 5635), without any clinical signs): over 24 hours
- Density of CGRP nerve axons in the contralateral sciatic nerve vs control treatment ([3]; RTX treated groups, p=0.9565, p=0.7911, p=0.7229): no differences
- Density of CGRP nerve axons in the contralateral femoral nerve vs control treatment ([3]; any RTX treatment, p=0.9914, p>0.9999, p=0.1760): did not statistically reduce
- Density of CGRP nerve axons in the ipsilateral sciatic nerve vs control treatment ([3]; local administration (50 μg), not statistically significant): reduced the density of CGRP nerve axons
- Density of CGRP nerve axons in the ipsilateral sciatic nerve vs control treatment ([3]; peri-neural 3.12 μg per nerve (6.25 μg total), not statistically significant): reduced the density of CGRP nerve axons
- Density of CGRP nerve axons in the ipsilateral femoral nerve ([3]; peri-neural 12.5 μg per nerve (25 μg total), p=0.0125): statistically reduced
- Density of CGRP nerve axons in the ipsilateral sciatic nerve vs control treatment ([3]; peri-neural 12.5 μg per nerve (25 μg total), statistically significant, p=0.0184): reduced the density of CGRP nerve axons
